Data from patent US20020177166A1, “Binding motif of a receptor” (MEDVET SCIENCE PTY.LTD., priority 2000, published 2002).
Values belong to the molecule of their own block, whether it stands above or below them. Ends that are not written are not given here.

Experiments:
[1] = tested on: CC[C@H](C)[C@H](NC(=O)[C@H](CC(=O)O)NC(=O)[C@@H]1CCCN1C(=O)[C@H](CC(C)C)NC(=O)[C@H](CO)NC(=O)[C@H](CCCNC(=N)N)NC(=O)[C@H](CO)NC(=O)[C@H](Cc1c[nH]cn1)NC(=O)[C@@H]1CCCN1C(=O)[C@@H]1CCCN1C(=O)CNC(=O)[C@H](CC(C)C)NC(=O)[C@@H](N)CS)C(=O)N[C@@H](CC(C)C)C(=O)NCC(=O)O; assay: purified protein, by the assay type; conditions: other: peptide as PKA substrate, hyperbolic regression analysis; 21.0 °C
[2] = target: T1, βc association with 14-3-3ζ (Homo sapiens, UniProt P63104); assay: GST-14-3-3-sepharose precipitation of βc from transfected HEK293T lysates with peptide competition; format: binding; conditions: for inhibition of βc association with GST-14-3-3 in pull-down: peptides 100 uM
T1 construct: expressed in transfected cells; host or cells: HEK293T (βc)
T1 sequence (P63104 1-245): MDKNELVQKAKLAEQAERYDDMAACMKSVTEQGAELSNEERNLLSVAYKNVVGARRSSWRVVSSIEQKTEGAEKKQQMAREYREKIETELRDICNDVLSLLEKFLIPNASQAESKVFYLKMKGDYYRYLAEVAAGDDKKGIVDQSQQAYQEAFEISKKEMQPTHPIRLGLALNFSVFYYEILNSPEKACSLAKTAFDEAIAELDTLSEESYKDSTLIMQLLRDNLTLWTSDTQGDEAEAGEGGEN
Protocol: Lysates of HEK293T cells transfected with βc were immunoprecipitated with GST-14-3-3-sepharose in the absence or in the presence of chemically-synthesised peptides (100 uM) containing a βc sequence ([…]) or a Raf-1 sequence ([…]). In the phosphorylated peptides the relevant phosphorylated serine is underlined. The experiment was performed on 7.5% SDS-PAGE under reducing conditions. The presence of βc in the precipitation experiment was determined by Western blotting with anti-βc antibody (MAb 1C1).
Lysates of HEK293T cells transfected with βc were precipitated with GST-14-3-3-sepharose in the absence or in the presence of various concentrations of chemically-synthesised peptides. […] The appropriate phosphorylated serine in each peptide is underlined. The experiment was performed on 7.5% SDS-PAGE under reducing conditions. The presence of βc in the immunoprecipitates was determined by Western blotting with anti-βc antibody (MAb 1C1).
Cells were lysed in lysis buffer for 30 mins at 4° C. followed by centrifugation of the lysate for 15 mins at 12,000 g 4° C. […] Samples were boiled for 5 mins in SDS sample load buffer in the presence of 2-mercaptoethanol before separating precipitated proteins by SDS-PAGE.
Cell lysates were precipitated or immunoprecipitated in the presence of various concentrations of the following peptides: βc peptide sequence […] either non phosphorylated or serine phosphorylated and a scrambled peptide […]. Raf1 peptides corresponding to the sequence […] were also used and were either non phosphorylated or serine phosphorylated. The corresponding phosphorylated serine in each peptide is underlined. Peptides were synthesised by Chiron Mimotopes, Melbourne, Australia. The presence of βc in either the immunoprecipitation or precipitation experiment was determined by Western blotting with anti-βc antibody (MAb 1C1).

[3] = tested on: anti-phospho-585Ser recognition of βc; assay: Western blot of immunoprecipitated βc with peptide-preincubated anti-phospho-585Serβc antibody; format: binding, human; conditions: 100 fold molar excess of peptide
Protocol: (§1) Lysates of HEK293T cells transfected with wild type βc were immunoprecipitated with anti-βc antibody (MAb 8E4). Immunoprecipitates were run on 7.5% SDS-PAGE under reducing conditions. […] M1 cells expressing GM-CSFRa and βc were either untreated (−) or stimulated with GM-CSF (2 ng/ml) for 30 seconds (+). Lysates of the M1 cells were immunoprecipitated with anti-βc antibody (MAb 8E4) and the immunoprecipitates run on 10% SDS-PAGE under reducing conditions.
These possibilities were initially addressed using ^32P-orthophosphate labelled HEK 293T cells transfected with the GM-CSF receptor (α and βc subunits). These cells were stimulated with GM-CSF, total βc was immunoprecipitated and examined for ^32P-labelling. This is most likely due to the presence of sixty serine and threonine residues in the intracellular region of βc, some of which may be constitutively phosphorylated.

[4] = tested on: interaction of hisβc445-881 with p85 and 14-3-3; assay: PKA-phosphorylated hisβc445-881 Sepharose pull-down from COS-7 lysates with peptide competition; format: binding; conditions: 200 mM competing peptides, 1 hour at 4° C.
Protocol: (a) analysis of PI 3-kinase activity. […] Cells were then lysed and phospho-tyrosine containing proteins were immunoprecipitated (2×10^7 cells/IP) using the 4G10 antibody. Immunoprecipitates were washed in 1× PI 3-kinase buffer (20 mM HEPES, pH 7.5, 5 mM MgCl2, 1 mM EGTA) and PI 3-kinase activity was analysed in a lipid kinase assay using phosphatidyl inositol and g^32PATP as substrates as described in the “Materials and Methods”. Autoradiogram of TLC plate is shown with ^32P-labelled phosphatidyl inositols (PIP) and the origin indicated. […] (b) CTL-EN cells were also examined for the association of βc with p85. […] Cells were then lysed and the βc immunoprecipitated (2×10^7 cells/IP) with the 1C1 anti-βc specific mAb. Immunoprecipitates were then subjected to SDS-PAGE, transferred to nitrocellulose and immunoblotted with anti-p85 (1 mg/ml) followed by detection with HRP-conjugated anti-rabbit IgG antibody and ECL. The filters were then stripped, probed with anti-SHP2 (1 mg/ml), stripped again and finally probed with 1C1 anti-βc (2 mg/ml). […] The association of hisβc445-881 with p85 was also assessed in pull-down experiments together with peptide competition. (c) List of peptides used in the hisbβc445-881 pull-down experiment. S refers to a phospho-serine residue. […]

PKA = target: T2, PKA (Homo sapiens, UniProt P17612); assay: In vitro kinase assay, PKA phosphorylation of hisβc445-881 with peptide competition; format: biochemical; conditions: 200 mM peptides
T2 construct: substrate Hisβc445-881 expressed in bacteria
Protocol: Peptide competitions were also performed using 200 mM peptides containing the indicated sequences. b) The ability of PKA and CKII to phosphorylate Ser585 of hisβc445-881 was examined by immunoblot analysis using the anti-phospho-Ser585βc antibodies. Filters were probed firstly with anti-phospho-Ser585βc antibodies (top panel). […] Cells were then lysed and βc immunoprecipitated with 1C1. Ser585 phosphorylation of βc was determined using the anti-phospho-Ser585 antibodies (top panel). The filter was then stripped and re-probed with anti βc 1C1 antibodies.
In an effort to identify the kinase involved in the phosphorylation of Ser585, we firstly examined the ability of several kinases to phosphorylate the purified recombinant intracellular portion of βc (hisβc445-881) in vitro. Ser585 of βc lies within a SXXD motif which is known to be a CKII consensus phosphorylation site. Ser585 also lies within a RS motif which is a possible, but poor, PKA phosphorylation site. […] Additional bands for the PKA kinase reactions were evident due to the autocatalytic activity of PKA. […] In this experiment, the non-phospho-HSRSLP peptide is likely to act as a competitive substrate for phosphorylation of Ser585 of hisβc445-881 by PKA. […]

[5] = tested on: 585Ser phosphorylation of βc in M1 myeloid leukaemic cells; assay: 585Ser phosphorylation of βc in M1 cells, immunoblot; format: cell-based; conditions: 2 ng/ml GM-CSF
Protocol: as §1

TF-1 = TF-1 proliferation assay; format: cell-based; conditions: recombinant human cytokine produced in E. coli
Protocol: Acad. Sci., 91, 5838. Cytokine purity and quantitation was determined by HPLC analysis and Coomasie staining of SDS-PAGE separated proteins.

[6] = tested on: Ser585 phosphorylation of βc in CTL-EN cells; assay: Ser585 phosphorylation of βc in CTL-EN cells expressing IL-3Ra and wtβc, immunoblot; format: cell-based
Excerpt: (§2) The βc was immunoprecipitated and then subjected to immunoblot analysis using the anti-phospho-Ser585βc antibody. […] Immunoprecipitates were electrophoresed on a polyacrylamide gel and the amount of radiolabelled receptor immunoprecipitated was quantified using a phosphorImager.
(§3) After various treatments, cells were lysed, βc was immunoprecipitated, and subjected to immunoblot analysis with the anti-phospho-Ser585 antibody.

[7] = tested on: Ser585 phosphorylation of βc in MO7e cells; assay: Ser585 phosphorylation and 14-3-3 recruitment in MO7e cells; format: cell-based; conditions: 30 μM H89 for 15 minutes prior to IL-3
Excerpt: as §2, §3

Molecule: PKA (Homo sapiens)
Km [1]: 376 µM | Vmax [1]: 250 nmol/min/mg

inhibition of βc association with 14-3-3, dose dependence and specificity ([2]; various concentrations of peptides (FIG. 8)): failed to inhibit this association
Molecule: CPLSLRSKPSPGPGP

effect on phosphorylation of hisβc445-881 by PKA (PKA): did not
Molecule: CLPLSGPDSHIRGPL [scrambled peptide]
inhibition of anti-phospho-585Ser recognition of βc [3]: did not | effect on interaction of p85 with hisβc445-881 [4]: had no apparent effect on this interaction

Molecule: GM-CSF: recombinant human GM-CSF produced in E. coli
585Ser phosphorylation of βc [5]: strongly upregulated ^585Ser phosphorylation of βc | ED50 in TF-1 proliferation assay (TF-1): 0.03 ng/mL

Molecule: CLSQRQRSTSTPNVHM [serine phosphorylated Raf-1 peptide] (also: serine phosphorylated, position not given here)
inhibition of βc association with GST-14-3-3 in pull-down [2]: able to inhibit βc association with 14-3-3

Molecule: CCCC(=O)Nc1ncnc2c1ncn2[C@@H]1O[C@@H]2COP(=O)(O)O[C@H]2[C@H]1OC(=O)CCC [db-cAMP, dibutyryl cAMP]
Ser585 phosphorylation of βc after stimulation ([6]; 50 ng/ml IL-3, 50 μM forskolin or 100 μM dibutyryl cAMP): increased Ser585 phosphorylation

Molecule: O=S(=O)(NCCNC/C=C/c1ccc(Br)cc1)c1cccc2cnccc12 [H89]
effect on IL-3 induced phosphorylation of Ser585 [7]: significantly reduced the IL-3 induced phosphorylation of Ser585 | effect on IL-3 induced phosphorylation of Ser585 ([6]; 30 μM H89 for 15 minutes prior to IL-3): significantly reduced the IL-3 induced phosphorylation of Ser585

inhibition of βc association with GST-14-3-3 in pull-down [2]: did not
Molecule: CLSQRQRSTSTPNVHM [nonphosphorylated Raf-1 peptide]
